Values of other authors as cited in US9072700B2, “Methods of using derivatives of (−)-venlafaxine” (Sunovion Pharmaceuticals Inc., priority 1998, dated 2015).

Assays:
[1] = system: norepinephrine synaptosomal uptake; conditions: Howell et al. 1994
serotonin uptake = conditions: Howell et al. 1994
dopamine uptake = conditions: in vitro; Muth et al. 1991
norepinephrine uptake = conditions: in vitro; Muth et al. 1991
[2] = Klamerus et al. 1992

COc1ccc([C@H](CN(C)C)C2(O)CCCCC2)cc1 [(−) enantiomer]
inhibition of norepinephrine synaptosomal uptake, enantiomer comparison [1]: more potent inhibitor

COc1ccc(C(CN(C)C)C2(O)CCCCC2)cc1 (single isomer, unassigned; (+)) [(+) enantiomer]
selectivity in inhibiting serotonin uptake, enantiomer comparison (serotonin uptake): more selective

CN(C)CC(c1ccc(O)cc1)C1(O)CCCCC1 (racemic) [O-desmethylvenlafaxine, (±)-1-[2-(dimethylamino)-1-(4-phenol)ethyl]cyclohexanol]
inhibition of dopamine uptake compared with racemic venlafaxine (dopamine uptake): more potent inhibitor | inhibition of norepinephrine uptake compared with racemic venlafaxine (norepinephrine uptake): more potent inhibitor | half-life (t½) [2]: about 10 hours | half-life relative to that of venlafaxine ([2]; ratio to venlafaxine half-life): approximately 2.5 times
